# PMC6656724 (Communications Biology, 2019)
# Experiments:
# [1] = Plasma protein binding (equilibrium dialysis); assay type: in vitro ADME; conditions: female, CD1, mouse, read-out: Fraction unbound (blood)
# Method: for 1 minute and then centrifuged at 3000 rpm in 96-well blocks for 15 minutes (Allegra X12-R, Beckman Coulter, USA). All samples were analysed by means of UPLC/MS/MS on a Xevo TQs micro Mass Spectrometer (Waters Corporation, USA).
# The unbound fraction was determined as the ratio of the peak area in artificial CSF to that in brain, with correction for dilution factor according to equation (5)21, […]
# ((1/f ! ,!""!#$%& ) − 1) + 1/D where D = dilution factor in brain homogenate and fu,apparent is the measured free fraction of diluted brain homogenate.
# 3.9 Plasma protein binding
# In brief, a 96 well equilibrium dialysis apparatus was used to determine the free fraction in plasma for inhibitor 1 (HT Dialysis LLC, Gales Ferry, CT). Membranes (12-14 kDA cut-off) were conditioned in deionised water for 60 minutes, followed by conditioning in 80:20 deionised water:ethanol for 20 minutes, and then rinsed in isotonic buffer before use. Female CD1 mouse plasma was removed from the freezer and allowed to thaw on the day of experiment. […] All samples were analysed by UPLC-MS/MS on a Xevo TQs micro Mass Spectrometer (Waters
# Corporation, USA). The unbound fraction was determined as the ratio of the peak area in buffer to that in plasma.
# [2] = biological target: T1, PfKMO (Pseudomonas fluorescens, UniProt Q84HF5, C252S/C461S); experiment: Hydrogen peroxide production, o-dianisidine / horseradish peroxidase assay; assay type: biochemical; conditions: presence and absence of L-Kyn
# T1 construct: made in house; host or cells: E. coli BL21 (DE3)
# T1 sequence (Q84HF5 whole entry C252S/C461S): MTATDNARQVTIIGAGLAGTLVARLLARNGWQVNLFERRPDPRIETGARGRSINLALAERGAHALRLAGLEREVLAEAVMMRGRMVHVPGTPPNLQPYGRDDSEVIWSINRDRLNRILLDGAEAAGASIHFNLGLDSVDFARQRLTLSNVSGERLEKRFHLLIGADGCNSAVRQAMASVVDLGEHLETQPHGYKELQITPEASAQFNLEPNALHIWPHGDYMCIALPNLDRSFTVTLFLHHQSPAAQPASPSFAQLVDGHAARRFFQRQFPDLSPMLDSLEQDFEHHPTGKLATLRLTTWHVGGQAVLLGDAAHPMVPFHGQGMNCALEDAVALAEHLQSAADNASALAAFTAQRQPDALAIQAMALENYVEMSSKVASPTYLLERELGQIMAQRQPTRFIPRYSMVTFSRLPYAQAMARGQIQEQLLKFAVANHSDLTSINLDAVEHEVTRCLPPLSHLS
# Method: H2O2 production rates from PfKMO inhibitor complexes were performed using a horseradish peroxidase (HRP) assay. NADPH consumption rate was measured in the presence and absence of an excess of KMO inhibitors (400 μM). For determination of H2O2 production rates, PfKMO (0.1 μM) was incubated with 100 μM NADPH, 200 μM L-KYN, 400 μM o-dianisidine and ∼5 units HRP in the presence and absence of excess KMO inhibitors. The rate of oxidation of o-dianisidine by H2O2, catalysed by HRP, was monitored at 440 nm (Δε 440 nm = 11.3 mM^−1 cm^−1). To eliminate the L-Kyn competition binding effect, the H2O2 production rates of KMO inhibitors were also measured without L-Kyn with the same method.
smiles,measurement,setting,value
"Cc1cc2c(c(C)c1Cl)N(CC(=O)O)C(=O)CO2 [compound 1, (6-chloro-5,7-dimethyl-3-oxo-2,3-dihydro-4H-1,4-benzoxazin-4-yl) acetic acid]","fraction unbound at 5 h, 10 ug/mL",[1],0.04
same,H2O2 production,[2],not detected
